Test results as given in US9732119B2, “Immunomodulators” (BRISTOL-MYERS SQUIBB COMPANY, priority 2014, dated 2017).
Positions of bridges follow the written chain, without caps; N, C: chain ends. Non-standard residues stand in square brackets, D forms with d. Residues, ends and D or L forms follow the SMILES beside them. Trp(1-CH2COOH) = N[C@@H](Cc1cn(CC(=O)O)c2ccccc12)C(=O)O; Phe(4-Cl) = N[C@@H](Cc1ccc(Cl)cc1)C(=O)O; Phe(4-Me) = Cc1ccc(C[C@H](N)C(=O)O)cc1; Hyp = O=C(O)[C@@H]1C[C@@H](O)CN1; Aad = N[C@@H](CCCC(=O)O)C(=O)O; NMeNle = CCCC[C@H](NC)C(=O)O; dOrn = NCCC[C@@H](N)C(=O)O; Pip = O=C(O)[C@@H]1CCCCN1; NMeA = CN[C@@H](C)C(=O)O; Dab = NCC[C@H](N)C(=O)O; Dap = NC[C@H](N)C(=O)O; AEA = NCCOCC(=O)O; Ava = NCCCCC(=O)O

What follows are compounds tested against T1, PD-1-Ig binding to PD-L1-TVMV-His (PD-L1-His) (Homo sapiens, UniProt Q9NZQ7) (assay: PD-1/PD-L1 Homogenous Time-Resolved Fluorescence (HTRF) binding assay). Conditions: PD-1-Ig (20 nM) / PD-L1-His (10 nM); range classes.
T1 construct: hPDL1(19-239)-TVMV-His; made in house; host or cells: HEK293T cells
T1 sequence (Q9NZQ7 with tags, fused parts or gaps): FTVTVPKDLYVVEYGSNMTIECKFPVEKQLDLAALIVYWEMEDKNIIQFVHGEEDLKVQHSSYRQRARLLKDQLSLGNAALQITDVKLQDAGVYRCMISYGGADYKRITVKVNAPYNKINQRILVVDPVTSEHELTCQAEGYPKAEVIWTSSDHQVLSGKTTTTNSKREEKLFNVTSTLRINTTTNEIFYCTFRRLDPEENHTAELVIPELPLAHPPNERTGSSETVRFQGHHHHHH
In short: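 HTRF competition: compound pre-incubated 15 min with PD-L1-His (10 nM final), then PD-1-Ig (20 nM final) added for 15 min in dPBS, 0.1% BSA, 0.05% Tween-20. Detection with Eu-cryptate anti-Ig (1 nM) and APC anti-His (20 nM) antibodies.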

| Compound | IC50 [nM] |
| --- | --- |
| CCCC[C@H]1C(=O)N(C)[C@@H](CCCC)C(=O)NC(CC(C)C)C(=O)N[C@H](C(N)=O)CNCC(=O)N[C@@H](Cc2ccc(O)cc2)C(=O)N(C)[C@@H](C)C(=O)N[C@@H](CC(N)=O)C(=O)N2CCC[C@H]2C(=O)N[C@@H](CN)C(=O)N[C@@H](CC(C)C)C(=O)N2C[C@H](O)C[C@H]2C(=O)N[C@@H](Cc2c[nH]c3ccccc23)C(=O)N[C@@H](CCCCN)C(=O)N[C@@H](Cc2cn(CC(=O)O)c3ccccc23)C(=O)N1C (some centres unmarked) [Example 1033] | 10 to 99 |
| CCCC[C@H]1C(=O)N(C)[C@@H](CCCC)C(=O)N[C@@H](CC(C)C)C(=O)N[C@@H](C)C(=O)NCC(=O)N[C@@H](Cc2ccc(O)cc2)C(=O)N(C)[C@@H](C)C(=O)N[C@@H](CC(N)=O)C(=O)N2CCC[C@H]2C(=O)N[C@@H](CN)C(=O)N[C@@H](CC(C)C)C(=O)N2C[C@H](O)C[C@H]2C(=O)N[C@@H](Cc2c[nH]c3ccccc23)C(=O)N[C@@H](CCN)C(=O)N[C@@H](Cc2c[nH]c3ccccc23)C(=O)N1C [Example 5006] (cyclo(AGY[NMeA]NP[Dap]L[Hyp]W[Dab]W[NMeNle][NMeNle]L)) | 10 to 99 |
| CCCC[C@H]1C(=O)N(C)[C@@H](CCCC)C(=O)N[C@@H](CC(C)C)C(=O)N[C@H](C(=O)NCC(N)=O)CNCC(=O)N[C@@H](Cc2ccc(O)cc2)C(=O)N(C)[C@@H](C)C(=O)N[C@@H](CC(N)=O)C(=O)N2CCC[C@H]2C(=O)N[C@@H](Cc2cnc[nH]2)C(=O)N[C@@H](CCC(N)=O)C(=O)N2C[C@H](O)C[C@H]2C(=O)N[C@@H](Cc2c[nH]c3ccccc23)C(=O)N[C@@H](CO)C(=O)N[C@@H](Cc2c[nH]c3ccccc23)C(=O)N1C [Example 10004] | 1 to 9.9 |
| CCCC[C@H]1C(=O)N(C)[C@@H](CCCC)C(=O)NC(CC(C)C)C(=O)N[C@H](C(=O)NCC(N)=O)CNCC(=O)N[C@@H](Cc2ccc(O)cc2)C(=O)N(C)[C@@H](C)C(=O)N[C@@H](CC(N)=O)C(=O)N2CCC[C@H]2C(=O)N[C@@H](Cc2cnc[nH]2)C(=O)N[C@@H](CC(C)C)C(=O)N2CCC[C@H]2C(=O)N[C@@H](Cc2c[nH]c3ccccc23)C(=O)N[C@@H](CC(N)=O)C(=O)N[C@@H](Cc2c[nH]c3ccccc23)C(=O)N1C (some centres unmarked) [Example 10003] | 1 to 9.9 |
| CCCC[C@H]1C(=O)N(C)[C@@H](CCCC)C(=O)N[C@@H](CC(C)C)C(=O)N[C@H](C(=O)NCC(N)=O)CNCC(=O)N[C@@H](Cc2ccc(O)cc2)C(=O)N(C)[C@@H](C)C(=O)N[C@@H](CC(=O)O)C(=O)N2CCC[C@H]2C(=O)N[C@@H](CCC(N)=O)C(=O)N[C@@H](CC(=O)O)C(=O)N2C[C@H](O)C[C@H]2C(=O)N[C@@H](Cc2c[nH]c3ccccc23)C(=O)N[C@@H](CC(N)=O)C(=O)N[C@@H](Cc2cn(CC(=O)O)c3ccccc23)C(=O)N1C [Example 9013] | 10 to 99 |
| CCCC[C@H]1C(=O)N(C)[C@@H](CCCC)C(=O)N[C@@H](CCC(=O)O)C(=O)N[C@H](C(N)=O)CNCC(=O)N[C@@H](Cc2ccc(F)cc2)C(=O)N2CCCC[C@H]2C(=O)N[C@@H](CC(N)=O)C(=O)N2CCC[C@H]2C(=O)N[C@@H](CCC(N)=O)C(=O)N[C@@H](CCC(=O)O)C(=O)N2C[C@H](O)C[C@H]2C(=O)N[C@@H](Cc2c[nH]c3ccccc23)C(=O)N[C@@H](CC(N)=O)C(=O)N[C@@H](Cc2cn(CC(=O)O)c3ccccc23)C(=O)N1C [Example 9047] | 1 to 9.9 |
| CCCC[C@H]1C(=O)N(C)[C@@H](CCCC)C(=O)N[C@@H](CC(C)C)C(=O)N[C@H](C(N)=O)CNCC(=O)N[C@@H](Cc2ccc(F)cc2)C(=O)N2CCCC[C@H]2C(=O)N[C@@H](CC(N)=O)C(=O)N2CCC[C@H]2C(=O)N[C@@H](CCC(N)=O)C(=O)N[C@@H](CC(=O)O)C(=O)N2C[C@H](O)C[C@H]2C(=O)N[C@@H](Cc2c[nH]c3ccccc23)C(=O)N[C@@H](CC(N)=O)C(=O)N[C@@H](Cc2cn(CC(=O)O)c3ccccc23)C(=O)N1C [Example 9031] | 1 to 9.9 |
| CCCC[C@H]1C(=O)N(C)[C@@H](CCCC)C(=O)N[C@@H](CCC(=O)O)C(=O)N[C@H](C(N)=O)CNCC(=O)N[C@@H](Cc2ccc(O)cc2)C(=O)N2CCCC[C@H]2C(=O)N[C@@H](CC(N)=O)C(=O)N2CCC[C@H]2C(=O)N[C@@H](CCC(N)=O)C(=O)N[C@@H](CC(C)C)C(=O)N2C[C@H](O)C[C@H]2C(=O)N[C@@H](Cc2c[nH]c3ccccc23)C(=O)N[C@@H](CC(N)=O)C(=O)N[C@@H](Cc2cn(CC(=O)O)c3ccccc23)C(=O)N1C [Example 9042] | 1 to 9.9 |
| CCCC[C@H]1C(=O)N(C)[C@@H](CCCC)C(=O)N[C@@H](CCC(=O)O)C(=O)N[C@H](C(=O)NCC(N)=O)CNCC(=O)N[C@@H](Cc2ccc(F)cc2)C(=O)N(C)[C@@H](C)C(=O)N[C@@H](CC(N)=O)C(=O)N2CCC[C@H]2C(=O)N[C@@H](CCC(N)=O)C(=O)N[C@@H](CC(=O)O)C(=O)N2C[C@H](O)C[C@H]2C(=O)N[C@@H](Cc2c[nH]c3ccccc23)C(=O)N[C@@H](CC(N)=O)C(=O)N[C@@H](Cc2cn(CC(=O)O)c3ccccc23)C(=O)N1C [Example 9023] | 10 to 99 |

Other lines, results leading:

| IC50 [nM] | Compound |
| --- | --- |
| 1 to 9.9 | CCCC[C@H]1C(=O)N(C)[C@@H](CCCC)C(=O)N[C@@H](CC(C)C)C(=O)N[C@H](C(N)=O)COCC(=O)N[C@@H](Cc2ccc(OC)cc2)C(=O)N2CCCC[C@H]2C(=O)N[C@@H](CC(N)=O)C(=O)N2CCC[C@H]2C(=O)N[C@@H](CN)C(=O)N[C@@H](CCC(=O)O)C(=O)N2C[C@H](O)C[C@H]2C(=O)N[C@@H](Cc2c[nH]c3ccccc23)C(=O)N[C@@H](CCN)C(=O)N[C@@H](Cc2cn(CC(=O)O)c3ccccc23)C(=O)N1C [Example 10530] |
| 10 to 99 | CCCC[C@H]1C(=O)N(C)[C@@H](CCCC)C(=O)N[C@@H](CC(C)C)C(=O)NCCC[C@@H](N)C(=O)N[C@@H](Cc2ccc(Cl)cc2)C(=O)N2CCCC[C@H]2C(=O)N[C@@H](CC(N)=O)C(=O)N2CCC[C@H]2C(=O)N[C@@H](CN)C(=O)N[C@@H](CC(C)C)C(=O)N2C[C@H](O)C[C@H]2C(=O)N[C@@H](Cc2c[nH]c3ccccc23)C(=O)N[C@@H](CCN)C(=O)N[C@@H](Cc2cn(CC(=O)O)c3ccccc23)C(=O)N1C [Example 10559] (H-[dOrn][Phe(4-Cl)][Pip]NP[Dap]L[Hyp]W[Dab][Trp(1-CH2COOH)][NMeNle][NMeNle]L; lactam 1-C) |
| 100 to 10000 | CCCC[C@H]1C(=O)N(C)[C@@H](CCCC)C(=O)N[C@@H](CC(C)C)C(=O)N[C@H](C(=O)NCC(N)=O)CCNCC(=O)N[C@@H](Cc2ccccc2)C(=O)N(C)[C@@H](C)C(=O)N[C@@H](CC(C)C)C(=O)N2CCC[C@H]2C(=O)N[C@@H](CC(C)C)C(=O)N[C@@H](CC(C)C)C(=O)N2CCC[C@H]2C(=O)N[C@@H](Cc2c[nH]c3ccccc23)C(=O)N[C@@H](CC(C)C)C(=O)N[C@@H](Cc2c[nH]c3ccccc23)C(=O)N1C [Example 10009] |
| 1 to 9.9 | CCCC[C@H]1C(=O)N(C)[C@@H](CCCC)C(=O)N[C@@H](CC(C)C)C(=O)NCCC[C@@H](N)C(=O)N[C@@H](Cc2ccc(O)cc2)C(=O)N2CCCC[C@H]2C(=O)N[C@@H](CC(N)=O)C(=O)N2CCC[C@H]2C(=O)N[C@@H](CN)C(=O)N[C@@H](CCC(=O)O)C(=O)N2C[C@H](O)C[C@H]2C(=O)N[C@@H](Cc2c[nH]c3ccccc23)C(=O)N[C@@H](CCN)C(=O)N[C@@H](Cc2cn(CC(=O)O)c3ccccc23)C(=O)N1C [Example 10568] (H-[dOrn]Y[Pip]NP[Dap]E[Hyp]W[Dab][Trp(1-CH2COOH)][NMeNle][NMeNle]L; lactam 1-C) |
| 10 to 99 | CCCC[C@H]1C(=O)N(C)[C@@H](CCCC)C(=O)N[C@@H](CC(C)C)C(=O)NCCC[C@@H](N)C(=O)N[C@@H](Cc2ccc(C)cc2)C(=O)N2CCCC[C@H]2C(=O)N[C@@H](CC(N)=O)C(=O)N2CCC[C@H]2C(=O)N[C@@H](CN)C(=O)N[C@@H](CC(C)C)C(=O)N2C[C@H](O)C[C@H]2C(=O)N[C@@H](Cc2c[nH]c3ccccc23)C(=O)N[C@@H](CCN)C(=O)N[C@@H](Cc2cn(CC(=O)O)c3ccccc23)C(=O)N1C [Example 10567] (H-[dOrn][Phe(4-Me)][Pip]NP[Dap]L[Hyp]W[Dab][Trp(1-CH2COOH)][NMeNle][NMeNle]L; lactam 1-C) |
| 10 to 99 | CCCC[C@H]1C(=O)N(C)[C@@H](CCCC)C(=O)N[C@@H](CC(C)C)C(=O)N[C@H](C(=O)NCC(N)=O)CCCC(=O)N[C@@H](Cc2ccc(O)cc2)C(=O)N2CCCC[C@H]2C(=O)N[C@@H](CC(N)=O)C(=O)N2CCC[C@H]2C(=O)N[C@@H](CN)C(=O)N[C@@H](CC(C)C)C(=O)N2C[C@H](O)C[C@H]2C(=O)N[C@@H](Cc2c[nH]c3ccccc23)C(=O)N[C@@H](CCN)C(=O)N[C@@H](Cc2cn(CC(=O)O)c3ccccc23)C(=O)N1C [Example 10515] (Y[Pip]NP[Dap]L[Hyp]W[Dab][Trp(1-CH2COOH)][NMeNle][NMeNle]L[Aad]G-NH2; lactam N-14) |
| 1 to 9.9 | CCCC[C@H]1C(=O)N(C)[C@@H](CCCC)C(=O)N[C@@H](CC(C)C)C(=O)NCCCCC(=O)N[C@@H](Cc2ccc(C)cc2)C(=O)N2CCCC[C@H]2C(=O)N[C@@H](CC(N)=O)C(=O)N2CCC[C@H]2C(=O)N[C@@H](CN)C(=O)N[C@@H](CC(C)C)C(=O)N2C[C@H](O)C[C@H]2C(=O)N[C@@H](Cc2c[nH]c3ccccc23)C(=O)N[C@@H](CCN)C(=O)N[C@@H](Cc2cn(CC(=O)O)c3ccccc23)C(=O)N1C [Example 10540] (cyclo([Ava][Phe(4-Me)][Pip]NP[Dap]L[Hyp]W[Dab][Trp(1-CH2COOH)][NMeNle][NMeNle]L)) |
| 100 to 10000 | CCCC[C@H]1C(=O)N(C)[C@@H](CCCC)C(=O)N[C@@H](CC(C)C)C(=O)NCCOCC(=O)N[C@@H](Cc2ccccc2)C(=O)N(C)[C@@H](C)C(=O)N[C@@H](CC(C)C)C(=O)N2CCC[C@H]2C(=O)NCC(=O)N[C@@H](CC(C)C)C(=O)N2CCC[C@H]2C(=O)N[C@@H](Cc2ccccc2)C(=O)NCC(=O)N[C@@H](Cc2ccccc2)C(=O)N1C [Example 10500] (cyclo([AEA]F[NMeA]LPGLPFGF[NMeNle][NMeNle]L)) |
